Common to all, as to format: cell-based, mouse
Assay [1] deals with β-galactosidase in CMV-LacZ C2C12 myotubes. Briefly: CMV-LacZ secondary screen in C2C12 myotubes (β-Gal stabilizing assay). The note with it: for CMV-LACZ in Myotubes, signal relative to DMSO: C2C12 CMV-LacZ myotubes, fold relative to DMSO; for CMV-LACZ in Myotubes, value relative to DMSO: SU9516 analogs, C2C12 CMV-LacZ, N=2. The method, boiled down: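 First, C2C12 myoblasts were transfected with a linearized CMV-LACZ vector and clonal lines selected by FDG β-gal assay. Then cells were exposed to compounds at 0.5, 1, 5, 10, 20 and 40 μM in 96-well format, two replicates each, and β-gal measured.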

Assay [2] deals with α7 integrin (LacZ reporter in α7+/LacZ myotubes). Briefly: Myotube α7 integrin FDG assay (Burkin assay in myotubes, 96-well). The note with it: for Burkin Assay in Myotubes, value relative to DMSO: SU9516 analogs, 96-well, N=3-6.
In assay [3] the test system is β-galactosidase in CMV-LacZ C2C12 myoblasts. Briefly: CMV-LacZ secondary screen in C2C12 myoblasts (β-Gal stabilizing assay). Particulars: for CMV-LACZ in Myoblasts (β-galactosidase activity relative to DMSO): CMV-LacZ C2C12 myoblasts; for CMV-LACZ in Myoblasts, value relative to DMSO: SU9516 analogs, C2C12 CMV-LacZ, N=2. Put shortly:
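A secondary screen identifies compounds that stabilize β-gal independently of the native promoter, using CMV-LacZ C2C12 cells. Curves span 0.5–40 μM at six levels, in duplicate.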

The test system of assay [4] is α7 integrin (LacZ reporter in α7βgal+/− myoblasts). The assay is described as follows: Myoblast α7+/LacZ integrin FDG assay (Burkin assay in myoblasts, 96-well). Particulars: 96-well; for Burkin Assay in Myoblasts, signal relative to DMSO: α7+/LacZ myoblasts; for Burkin Assay in Myoblasts, value relative to DMSO: SU9516 analogs, N=3-6.

With `CC(=O)Nc1ccc(NC(=O)C/C(C)=N/NC(=O)COc2cc(C)c(Br)cc2Br)cc1` [MLS000912562-01], the “CMV-LACZ in Myotubes, signal relative to DMSO” value came out at 1.0905 in assay [1] (0.5 uM); 0.8924 in assay [1] (1 uM); 0.9602 in assay [1] (5 uM); 1.1674 in assay [1] (10 uM); 1.2090 in assay [1] (20 uM); 1.2780 in assay [1] (40 uM). For the same compound, the “Burkin Assay in Myotubes, α7 integrin LacZ reporter signal relative to DMSO” value in assay [2] (0.5 uM) is 0.898; in assay [2] (1 uM) it was 0.8582; in assay [2] (5 uM) it was 0.929; in assay [2] (10 uM) it was 0.8748; in assay [2] (20 uM) it was 0.8872; in assay [2] (40 uM), 0.7024. Moreover, the “CMV-LACZ in Myoblasts (β-galactosidase activity relative to DMSO)” value in assay [3] (0.5 uM) turned out to be 0.8680; in assay [3] (1 uM) it was 0.9150; in assay [3] (5 uM), 0.7103; in assay [3] (10 uM), 0.6246; in assay [3] (20 uM) it was 1.0302; in assay [3] (40 uM), 0.8747. The “Burkin Assay in Myoblasts, signal relative to DMSO” value in assay [4] (0.5 uM) is 0.7697; in assay [4] (1 uM), 0.929; in assay [4] (5 uM), 1.039; in assay [4] (10 uM) it was 0.9253; in assay [4] (20 uM), 0.6911; in assay [4] (40 uM) it was 0.5552.
Consider `O=Nc1c(-c2c(O)[nH]c3cc(Br)ccc23)[nH]c2ccccc12` [NCGC00094112-04], for which the “CMV-LACZ in Myotubes, value relative to DMSO” value turned out to be 1.0409 in assay [1] (0.5 uM); 0.8864 in assay [1] (1 uM); 0.8123 in assay [1] (5 uM); 0.7933 in assay [1] (10 uM); 0.7190 in assay [1] (20 uM); 0.5420 in assay [1] (40 uM). For the same compound, the “Burkin Assay in Myotubes, value relative to DMSO” value is 0.7402 in assay [2] (0.5 uM); 0.8159 in assay [2] (1 uM); 0.7596 in assay [2] (5 uM); 0.629 in assay [2] (10 uM); 0.6813 in assay [2] (20 uM); 0.35 in assay [2] (40 uM). Moreover, the “CMV-LACZ in Myoblasts, value relative to DMSO” value in assay [3] (0.5 uM) is reported as 1.1721; in assay [3] (1 uM) it was 1.1779; in assay [3] (5 uM), 1.0309; in assay [3] (10 uM), 1.0782; in assay [3] (20 uM), 0.4403; in assay [3] (40 uM), 0.3627. Moreover, the “Burkin Assay in Myoblasts, value relative to DMSO” value in assay [4] (0.5 uM) amounted to 1.019; in assay [4] (1 uM) it was 0.9927; in assay [4] (5 uM), 0.5722; in assay [4] (10 uM) it was 0.4943; in assay [4] (20 uM) it was 0.4509; in assay [4] (40 uM), 0.3428.
Regarding `CCCn1c(-c2cc(OC)c(OC)c(OC)c2)nc2c1c(=O)[nH]c(=O)n2Cc1ccccc1` [MLS001174740-01], the “CMV-LACZ in Myotubes, signal relative to DMSO” value is reported as 0.8533 in assay [1] (0.5 uM); 0.9267 in assay [1] (1 uM); 0.9101 in assay [1] (5 uM); 1.0520 in assay [1] (10 uM); 1.0568 in assay [1] (20 uM); 0.8863 in assay [1] (40 uM). Besides, the “Burkin Assay in Myotubes, α7 integrin LacZ reporter signal relative to DMSO” value in assay [2] (0.5 uM) came to 0.9078; in assay [2] (1 uM), 0.8687; in assay [2] (5 uM), 0.8574; in assay [2] (10 uM), 0.9017; in assay [2] (20 uM) it was 0.7823; in assay [2] (40 uM), 0.7064. Also, the “CMV-LACZ in Myoblasts (β-galactosidase activity relative to DMSO)” value in assay [3] (0.5 uM) was 1.2750; in assay [3] (1 uM), 0.9721; in assay [3] (5 uM), 1.0046; in assay [3] (10 uM), 0.9490; in assay [3] (20 uM) it was 0.4293; in assay [3] (40 uM) it was 0.4578. The “Burkin Assay in Myoblasts, signal relative to DMSO” value in assay [4] (0.5 uM) is on record as 1.221; in assay [4] (1 uM) it was 1.193; in assay [4] (5 uM) it was 0.8512; in assay [4] (10 uM) it was 1.181; in assay [4] (20 uM), 0.9658; in assay [4] (40 uM) it was 0.5414.
